Results taken from patent publication EP4722219A1 (Gan & Lee Pharmaceuticals Co., Ltd., priority 2023, dated 2024).

What was measured:
Type in all cases: cell-based
[1] = target: T1, ERα (Homo sapiens, UniProt P03372); experiment: ERα degradation in T-47D cells (Western blot); conditions: 4 hours
T1 sequence (P03372 1-595): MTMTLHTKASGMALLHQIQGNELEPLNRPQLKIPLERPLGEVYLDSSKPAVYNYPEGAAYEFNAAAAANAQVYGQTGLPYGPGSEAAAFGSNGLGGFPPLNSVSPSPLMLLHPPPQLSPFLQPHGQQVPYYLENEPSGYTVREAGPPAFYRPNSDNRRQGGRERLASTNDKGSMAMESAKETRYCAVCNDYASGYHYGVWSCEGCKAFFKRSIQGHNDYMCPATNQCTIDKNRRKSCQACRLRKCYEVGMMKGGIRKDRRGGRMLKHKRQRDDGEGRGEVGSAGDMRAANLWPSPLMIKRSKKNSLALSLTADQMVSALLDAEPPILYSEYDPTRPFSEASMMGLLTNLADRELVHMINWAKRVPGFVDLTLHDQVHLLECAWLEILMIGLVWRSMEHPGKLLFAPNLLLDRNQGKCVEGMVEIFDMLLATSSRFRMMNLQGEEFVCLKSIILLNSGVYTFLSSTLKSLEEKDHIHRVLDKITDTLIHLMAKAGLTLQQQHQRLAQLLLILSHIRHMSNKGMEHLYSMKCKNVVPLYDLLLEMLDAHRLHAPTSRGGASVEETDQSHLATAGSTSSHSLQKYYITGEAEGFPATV
Summary of the method: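 ERα was quantified by immunoblot of RIPA lysates (20 µg total protein), normalised to an internal reference band, and degradation was expressed against control. Lysates came from T-47D cells plated at 3×10^5 cells/well and dosed 4 hours at 37°C with compound at 0.15-1000 nM final concentration.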

[2] = test system: T-47D cells; experiment: Inhibition of cell proliferation in T-47D cells (CCK-8); conditions: Homo sapiens, T47D, 144 h, 6 days treatment, CCK-8 cell viability
Summary of the method: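 Viability by CCK-8 after a 6-day, 37 °C/5% CO2 exposure of T-47D cells (3,000/well, RPMI-1640 + 10% FBS) to graded PROTAC concentrations. Inhibition rates gave the IC50.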

[3] = test system: MCF-7 cells; experiment: Inhibition of cell proliferation in MCF-7 cells (CCK-8); conditions: Homo sapiens, MCF7, 144 h, MCF-7 cell proliferation, 6 days treatment
Summary of the method: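 IC50 from CCK-8 viability-based inhibition after 6-day treatment of MCF-7 cells (800 cells/well, 10% FBS DMEM, 37 °C, 5% CO2) with serially varied compound concentrations.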

[4] = target: T1, ERα; experiment: ERα degradation in MCF-7 cells (Western blot); set-up: host or cells: MCF-7; conditions: 4 hours
Summary of the method: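 ERα degradation was quantified by immunoblot densitometry, ERα signal divided by internal-reference signal and compared with control. Compounds were applied to MCF-7 cells for 4 hours at final concentrations of 0.15–1000 nM, with 20 µg total protein loaded per lane.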

| Degradation rate of ERα in T-47D cells (%) ([1]; 1nM) | Degradation rate of ERα in T-47D cells (%) ([1]; 10nM) | IC50 [2] [nM] | IC50 [3] [nM] | Degradation rate of ERα in MCF-7 cells (%) ([4]; 1nM) | Degradation rate of ERα in MCF-7 cells (%) ([4]; 10nM) | Structure (SMILES) |
| --- | --- | --- | --- | --- | --- | --- |
| 42 | 65 | 1.3 | 15.1 | 50 | 69 | C[C@@H]1Cc2cc(O)ccc2C(c2c(F)cc(N3CCC4(CCC(N5CC6(CCC7(CC6)COc6c7ccc7c6CN(C6CCC(=O)NC6=O)C7=O)C5)CC4)CC3)cc2F)N1CC(F)F (stereo partly drawn) [ER-P-21, 3-(1-(3-(4-((3R)-2-(2,2-difluoroethyl)-6-hydroxy-3-methyl-1,2,3,4-tetrahydroisoquinolin-1-yl)-3,5-difluorophenyl)-3-azaspiro[5.5]undecan-9-yl)-6"-oxo-6",8"-dihydro-2"H,7"H-dispiro[azetidine-3,1'-cyclohexane-4',3"-furo[2,3-e]isoindol]-7"-yl)piperidine-2,6-dione] |
| 20 | 53 | 1.34 | < 0.256 | 26 | 62 | C[C@@H]1Cc2cc(O)ccc2C(c2c(F)cc(N3CCC4(CC3)CC(N3CCC5(CC3)CCC3(CC5)COc5c3ccc3c5CN(C5CCC(=O)NC5=O)C3=O)C4)cc2F)N1CC(F)F (stereo partly drawn) [ER-P-27, 3-(1"-(7-(4-((3R)-2-(2,2-difluoroethyl)-6-hydroxy-3-methyl-1,2,3,4-tetrahydroisoquinolin-1-yl)-3,5-difluorophenyl)-7-azaspiro[3.5]nonan-2-yl)-6-oxo-6,8-dihydro-2H,7H-dispiro[furo[2,3-e]isoindole-3,1'-cyclohexane-4',4"-piperidin]-7-yl)piperidine-2,6-dione] |
| 41 | 59 | 1.56 | < 0.256 | 38 | 63 | C[C@@H]1Cc2cc(O)ccc2C(c2c(F)cc(N3CCC4(CC3)CC(N3CC5(CCC6(CC5)COc5c6ccc6c5CN(C5CCC(=O)NC5=O)C6=O)C3)C4)cc2F)N1CC(F)F (stereo partly drawn) [ER-P-28, 3-(1-(7-(4-((3R)-2-(2,2-difluoroethyl)-6-hydroxy-3-methyl-1,2,3,4-tetrahydroisoquinolin-1-yl)-3,5-difluorophenyl)-7-azaspiro[3.5]nonan-2-yl)-6"-oxo-6",8"-dihydro-2"H,7"H-dispiro[azetidine-3,1'-cyclohexane-4',3"-furo[2,3-e]isoindol]-7"-yl)piperidine-2,6-dione] |

The remaining lines, values behind:

| Structure (SMILES) | Degradation rate of ERα in T-47D cells (%) ([1]; 1nM) | Degradation rate of ERα in T-47D cells (%) ([1]; 10nM) | IC50 [2] [nM] | IC50 [3] [nM] | Degradation rate of ERα in MCF-7 cells (%) ([4]; 1nM) | Degradation rate of ERα in MCF-7 cells (%) ([4]; 10nM) |
| --- | --- | --- | --- | --- | --- | --- |
| O=C1CCC(N2Cc3c(ccc4c3OCC43CCC4(CC3)CN(CC3CCN(c5ccc([C@@H]6c7ccc(O)cc7CC[C@@H]6c6ccccc6)cc5)CC3)C4)C2=O)C(=O)N1 (stereo partly drawn) [ER-P-23, 3-(1-((1-(4-((1R,2S)-6-hydroxy-2-phenyl-1,2,3,4-tetrahydronaphthalen-1-yl)phenyl)piperidin-4-yl)methyl)-6"-oxo-6",8"-dihydro-2"H,7"H-di(pyridyl)furan[azetidine-3,1'-cyclohexane-4',3"-furo[2,3-e]isoindol]-7"-yl)piperidine-2,6-dione] | 40 | 67 | 1.61 | < 0.256 | 26 | 48 |
| Cn1c(=O)n(C2CCC(=O)NC2=O)c2cc3c(cc21)C1(CCN(CC2CCN(c4ccc([C@@H]5c6ccc(O)cc6CC[C@@H]5c5ccccc5)cc4)CC2)CC1)CO3 (stereo partly drawn) [ER-P-24, 3-(1'-((1-(4-((1R,2S)-6-hydroxy-2-phenyl-1,2,3,4-tetrahydronaphthalen-1-yl)phenyl)piperidin-4-yl)methyl)-1-methyl-2-oxo-1,2-dihydro-3H,6H-spiro[benzofuro[5,6-d]imidazole-7,4'-piperidin]-3-yl)piperidine-2,6-dione] | -16 | -49 | 19.2 | 1070 | -68 | -39 |
| Cn1c(=O)n(C2CCC(=O)NC2=O)c2ccc3c(c21)OCC31CCN(C(=O)C2CN(CC3CCN(c4ccc([C@@H]5c6ccc(O)cc6CC[C@@H]5c5ccccc5)cc4)CC3)C2)CC1 (stereo partly drawn) [ER-P-25, 3-(1'-(1-((1-(4-((1R,2S)-6-hydroxy-2-phenyl-1,2,3,4-tetrahydronaphthalen-1-yl)phenyl)piperidin-4-yl)methyl)azetidine-3-carbonyl)-1-methyl-2-oxo-1,2-dihydro-3H,7H-spiro[benzofuro[6,7-d]imidazole-6,4'-piperidin]-3-yl)piperidine-2,6-dione] | 77 | 71 | 0.84 | 1.26 | 49 | 53 |
| Cn1c(=O)n(C2CCC(=O)NC2=O)c2cc3c(cc21)C1(CCN(C(=O)C2CN(CC4CCN(c5ccc([C@@H]6c7ccc(O)cc7CC[C@@H]6c6ccccc6)cc5)CC4)C2)CC1)CO3 (stereo partly drawn) [ER-P-26] | 58 | 70 | 0.51 | 125 | 43 | 40 |
| C[C@@H]1Cc2cc(O)ccc2C(c2c(F)cc(N3CCC4(CCC(N5CCC6(CC5)COc5c6ccc6c5n(C)c(=O)n6C5CCC(=O)NC5=O)CC4)CC3)cc2F)N1CC(F)F (stereo partly drawn) [ER-P-29, 3-(1'-(3-(4-((3R)-2-(2,2-difluoroethyl)-6-hydroxy-3-methyl-1,2,3,4-tetrahydroisoquinolin-1-yl)-3,5-difluorophenyl)-3-azaspiro[5.5]undecan-9-yl)-1-methyl-2-oxo-1,2-dihydro-3H,7H-spiro[benzofuro[6,7-d]imidazole-6,4'-piperidin]-3-yl)piperidine-2,6-dione] | 53 | 41 | 0.92 | 140 | 54 | 25 |
| C[C@@H]1Cc2cc(O)ccc2C(c2c(F)cc(N3CCC(C(=O)N4CCC(N5CCC6(CC5)COc5c6ccc6c5n(C)c(=O)n6C5CCC(=O)NC5=O)CC4)CC3)cc2F)N1CC(F)F (stereo partly drawn) [ER-P-30, 3-(1'-(1-(1-(4-((3R)-2-(2,2-difluoroethyl)-6-hydroxy-3-methyl-1,2,3,4-tetrahydroisoquinolin-1-yl)-3,5-difluorophenyl)piperidine-4-carbonyl)piperidin-4-yl)-1-methyl-2-oxo-1,2-dihydro-3H,7H-spiro[benzofuro[6,7-d]imidazole-6,4'-piperidin]-3-yl)piperidine-2,6-dione] | 47 | 17 | 2.42 | 4960 | 42 | 14 |
| O=C1CCC(Nc2ccc3c(c2)OCC32CCN(C[C@H]3CC[C@@H](OC4CCN(c5ccc([C@@H]6c7ccc(O)cc7CC[C@@H]6c6ccccc6)cc5)CC4)CC3)CC2)C(=O)N1 (stereo partly drawn) [ER-P-31, 3-((1'-(((1S,4s)-4-((1-(4-((1R,2S)-6-hydroxy-2-phenyl-1,2,3,4-tetrahydronaphthalen-1-yl)phenyl)piperidin-4-yl)oxy)cyclohexyl)methyl)-2H-spiro[benzofuran-3,4'-piperidin]-6-yl)amino)piperidine-2,6-dione] | 26 | 79 | 2.71 | 54.8 | 29 | 71 |
